In patent US10052306B2 (LUC THERAPEUTICS, INC., priority 2013, dated 2018):

Assays:
NR1/NR2B [1] = biological target: NR1/NR2B (Homo sapiens (Human), UniProt Q05586+Q13224); test: Cell assay: FDSS Ca2+ influx inhibition in HEK293 cells expressing NR1/NR2B; settings: Binned Activity, HEK293 cells expressing NR1/NR2B, Ca2+ influx; binned NR2B NAM IC50;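 also: Fluo-8 Ca2+ signal read on Hamamatsu FDSS 6000 after glutamate, glycine and Ca2+ challenge following 10 min compound preincubation, end/baseline fluorescence ratio compared with MK801 control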
NR1/NR2B (Homo sapiens (Human), UniProt Q05586+Q13224), sequence (Q13224 27-1484, other chains not shown): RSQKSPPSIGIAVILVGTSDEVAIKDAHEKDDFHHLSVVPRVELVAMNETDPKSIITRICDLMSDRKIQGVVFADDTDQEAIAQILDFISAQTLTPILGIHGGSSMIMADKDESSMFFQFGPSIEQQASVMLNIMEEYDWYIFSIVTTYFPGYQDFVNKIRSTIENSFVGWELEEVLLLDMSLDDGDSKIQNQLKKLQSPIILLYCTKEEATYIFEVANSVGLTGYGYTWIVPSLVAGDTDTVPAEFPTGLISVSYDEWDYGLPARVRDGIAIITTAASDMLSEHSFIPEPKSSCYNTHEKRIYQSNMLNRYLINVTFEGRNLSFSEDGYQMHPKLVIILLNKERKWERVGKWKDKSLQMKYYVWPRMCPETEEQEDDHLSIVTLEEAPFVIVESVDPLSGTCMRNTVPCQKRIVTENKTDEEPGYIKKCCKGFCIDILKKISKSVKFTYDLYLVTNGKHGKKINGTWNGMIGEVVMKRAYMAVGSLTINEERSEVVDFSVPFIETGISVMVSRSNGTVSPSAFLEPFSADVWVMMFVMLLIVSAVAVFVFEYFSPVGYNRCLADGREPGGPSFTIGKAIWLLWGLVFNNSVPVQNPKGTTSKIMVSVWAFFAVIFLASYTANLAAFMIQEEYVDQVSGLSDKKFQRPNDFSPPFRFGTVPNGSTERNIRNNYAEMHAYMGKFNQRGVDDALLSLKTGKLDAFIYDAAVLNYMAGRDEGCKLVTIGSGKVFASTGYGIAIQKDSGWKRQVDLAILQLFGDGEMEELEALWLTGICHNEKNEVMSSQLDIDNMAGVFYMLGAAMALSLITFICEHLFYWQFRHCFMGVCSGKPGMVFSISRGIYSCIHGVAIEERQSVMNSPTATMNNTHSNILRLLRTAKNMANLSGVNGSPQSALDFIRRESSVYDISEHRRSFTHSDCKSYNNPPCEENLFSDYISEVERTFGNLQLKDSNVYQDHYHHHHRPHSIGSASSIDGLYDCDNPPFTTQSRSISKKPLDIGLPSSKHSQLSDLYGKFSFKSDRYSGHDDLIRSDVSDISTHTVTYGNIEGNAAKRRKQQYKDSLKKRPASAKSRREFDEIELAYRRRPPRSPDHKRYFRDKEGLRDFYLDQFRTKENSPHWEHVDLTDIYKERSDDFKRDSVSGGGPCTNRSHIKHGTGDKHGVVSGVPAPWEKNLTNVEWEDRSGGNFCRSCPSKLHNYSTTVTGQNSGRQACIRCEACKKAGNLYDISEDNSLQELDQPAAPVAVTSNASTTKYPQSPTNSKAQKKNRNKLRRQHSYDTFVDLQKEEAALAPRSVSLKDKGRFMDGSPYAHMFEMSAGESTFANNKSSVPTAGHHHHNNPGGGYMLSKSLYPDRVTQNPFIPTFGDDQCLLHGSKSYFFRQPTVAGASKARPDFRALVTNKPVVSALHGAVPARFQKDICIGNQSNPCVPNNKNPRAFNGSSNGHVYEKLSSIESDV

NR1/NR2B [2] = biological target: NR1/NR2B (Homo sapiens (Human), UniProt Q13224); test: as above; settings: read-out: NR2B NAM IC50; HEK293 cells expressing NR1/NR2B, Ca2+ influx
NR1/NR2B (Homo sapiens (Human), UniProt Q13224), sequence (Q13224 27-1484, other chains not shown): as above

| IC50 (NR1/NR2B [1]) [µM] | IC50 (NR1/NR2B [2]) [µM] | Compound |
| --- | --- | --- |
| > 10 | 10 | Cc1cccc(N2C[C@@H]3C[C@@](O)(c4ccccc4)C[C@@H]3C2)n1 [Example 85, 2-(6-methylpyridin-2-yl)-5-phenyl-octahydrocyclopenta[c] pyrrol-5-ol] |
| < 0.1 | 0.0317 | Oc1ccc([C@H](O)CN2C[C@@H]3C[C@@](O)(Cc4ccc(F)cc4)C[C@@H]3C2)nc1 [Example 256, (3aR,5R,6aS)-5-(4-fluorobenzyl)-2-((R)-2-hydroxy-2-(5-hydroxypyridin-2-yl)ethyl)octahydrocyclo-penta[c]pyrrol-5-ol] |
| > 10 | 10 | O[C@@]1(c2ccc(F)cc2)C[C@H]2CN(c3ccccn3)C[C@H]2C1 [Example 80, 5-(4-fluorophenyl)-2-(pyridin-2-yl)-octahydrocyclopenta[c] pyrrol-5-ol] |
| > 10 | 10 | O=C(CN1C[C@@H]2C[C@@](O)(Cc3ccccc3)C[C@@H]2C1)c1cccc(-c2ccc(F)cc2)c1 [Example 274, 2-((3aR,5r,6aS)-5-benzyl-5-hydroxyhexahydrocyclo-penta[c]pyrrol-2(1H)-yl)-1-(4′-fluoro-[1,1′-biphenyl]-3-yl)ethanone] |
| > 10 | 10 | O=C(Nc1cccnc1)N1C[C@H]2C[C@@H](c3ccccc3)C[C@H]2C1 [Example 111, 5-phenyl-N-(pyridin-3-yl)-octahydrocyclopenta[c] pyrrole-2-carboxamide] |
| > 10 | 10 | O=C(CN1C[C@@H]2C[C@@](O)(Cc3ccccc3)C[C@@H]2C1)c1ncc(O)cn1 [Example 202, 2-[(3aR,5R,6aS)-5-benzyl-5-hydroxy-octahydrocyclopenta[c]pyrrol-2-yl]-1-(5-hydroxypyrimidin-2-yl)ethan-1-one] |
| > 10 | 10 | CC(=O)Nc1ccc(C(=O)CN2C[C@@H]3C[C@@](O)(Cc4ccccc4)C[C@@H]3C2)cn1 [Example 282, N-(5-(2-((3aR,5r,6aS)-5-benzyl-5-hydroxyhexahydrocyclo-penta[c]pyrrol-2(1H)-yl)acetyl)pyridin-2-yl)acetamide] |
| 0.1 to 1 | 0.11 | O=C(CN1C[C@@H]2C[C@@](O)(Cc3cccc(F)c3F)C[C@@H]2C1)c1ccc(O)cc1 [Example 249, 2-((3aR,5r,6aS)-5-(2,3-difluorobenzyl)-5-hydroxyhexahydrocyclo-penta[c]pyrrol-2(1H)-yl)-1-(4-hydroxyphenyl)ethanone] |
| > 10 | 10 | O=C(CN1C[C@@H]2C[C@@](O)(CC3CCCCC3)C[C@@H]2C1)c1ccc(O)cn1 [Example 206, 2-[(3aR,5R,6aS)-5-(cyclohexylmethyl)-5-hydroxy-octahydrocyclopenta[c]pyrrol-2-yl]-1-(5-hydroxypyridin-2-yl)ethan-1-one] |
| < 0.1 | 0.0535 | O=C(CN1C[C@H]2C[C@H](Cc3ccccc3)C[C@H]2C1)c1ccc(O)cc1 [Example 305, 2-[(3aR,5R,6aS)-5-benzyl-octahydrocyclopenta[c]pyrrol-2-yl]-1-(4-hydroxyphenyl)ethan-1-one] |
| > 10 | 10 | COc1cccc([C@]2(O)C[C@H]3CN(C(=O)Nc4cc(C)ccc4OC)C[C@H]3C2)c1 [Example 33, 5-hydroxy-N-(2-methoxy-5-methylphenyl)-5-(3-methoxyphenyl)-octahydrocyclopenta[c] pyrrole-2-carboxamide] |
| < 0.1 | 0.0572 | CO[C@@]1(Cc2ccccc2)C[C@H]2CN(CC(=O)c3ccc(O)cc3)C[C@H]2C1 [Example 174, 2-((3aR,5r,6aS)-5-benzyl-5-methoxyhexahydrocyclo-penta[c]pyrrol-2(1H)-yl)-1-(4-hydroxyphenyl)ethanone] |
| > 10 | 10 | COc1cccc([C@]2(O)C[C@H]3CN(C(=O)Nc4ccccc4)C[C@H]3C2)c1 [Example 29, 5-hydroxy-5-(3-methoxyphenyl)-N-phenyl-octahydrocyclopenta[c] pyrrole-2-carboxamide] |
| > 10 | 10 | CS(=O)(=O)Nc1ccc(C(=O)CN2C[C@@H]3C[C@@](O)(Cc4ccccc4)C[C@@H]3C2)nc1 [Example 235, N-(6-(2-((3aR,5r,6aS)-5-benzyl-5-hydroxyhexahydrocyclo-penta[c]pyrrol-2(1H)-yl)acetyl)pyridin-3-yl)methanesulfonamide] |
| > 10 | 10 | Cc1cccc(N2C[C@@H]3C[C@@](O)(c4ccc(C(C)(C)C)cc4)C[C@@H]3C2)n1 [Example 89, 5-(4-tert-butylphenyl)-2-(6-methylpyridin-2-yl)-octahydrocyclopenta[c] pyrrol-5-ol] |
| < 0.1 | 0.0441 | O=C(CN1C[C@@H]2C[C@@](O)(Cc3ccccc3)C[C@@H]2C1)c1ccc(O)cc1 [Example 130, 2-((3aR,5r,6aS)-5-benzyl-5-hydroxyhexahydrocyclo-penta[c]pyrrol-2(1H)-yl)-1-(4-hydroxyphenyl)ethanone] |
| 1 to 10 | 3.89 | O=C(CN1C[C@@H]2C[C@@](O)(Cc3ccncc3)C[C@@H]2C1)c1ccc(O)cc1 [Example 226, 2-((3aR,5r,6aS)-5-hydroxy-5-(pyridin-4-ylmethyl)hexahydrocyclo-penta[c]pyrrol-2(1H)-yl)-1-(4-hydroxyphenyl)ethanone] |
| > 10 | 10 | O=C(Cc1ccc(O)cc1)CN1C[C@@H]2C[C@@](O)(Cc3ccccc3)C[C@@H]2C1 [Example 145, 1-((3aR,5r,6aS)-5-benzyl-5-hydroxyhexahydrocyclo-penta[c]pyrrol-2(1H)-yl)-3-(4-hydroxyphenyl)propan-2-one] |
| > 10 | 10 | O=C(Nc1ccc(F)cc1)N1C[C@H]2C[C@@H](c3ccccc3)C[C@H]2C1 [Example 101, N-(4-fluorophenyl)-5-phenyl-octahydrocylcopenta[c] pyrrole-2-carboxamide] |
| > 10 | 10 | O=C(CN1C[C@@H]2C[C@@](O)(c3cccnc3F)C[C@@H]2C1)c1ccc(O)cn1 [Example 244, 2-((3aR,6aS)-5-(2-fluoropyridin-3-yl)-5-hydroxyhexahydrocyclo-penta[c]pyrrol-2(1H)-yl)-1-(5-hydroxypyridin-2-yl)ethanone] |
| 0.1 to 1 | 0.372 | O=C(CN1C[C@@H]2C[C@@](O)(Cc3ccccc3)C[C@@H]2C1)c1ccc(O)c(F)c1 [Example 151, 2-((3aR,5r,6aS)-5-benzyl-5-hydroxyhexahydrocyclo-penta[c]pyrrol-2(1H)-yl)-1-(3-fluoro-4-hydroxyphenyl)ethanone] |
| > 10 | 10 | O=C(CN1C[C@@H]2C[C@@](O)(Cc3ccc(F)c(F)c3)C[C@@H]2C1)c1ccc(O)cn1 [Example 239, 2-((3aR,5r,6aS)-5-(3,4-difluorobenzyl)-5-hydroxyhexahydrocyclo-penta[c]pyrrol-2(1H)-yl)-1-(5-hydroxypyridin-2-yl)ethanone] |
| 1 to 10 | 1.99 | O=C(CN1C[C@@H]2C[C@@](O)(Cc3ccccc3Cl)C[C@@H]2C1)c1ccc(O)cn1 [Example 234, 2-((3aR,5r,6aS)-5-(2-chlorobenzyl)-5-hydroxyhexahydrocyclo-penta[c]pyrrol-2(1H)-yl)-1(5-hydroxypyridin-2-yl)ethanone] |
| > 10 | 10 | O=C(CN1C[C@@H]2C[C@@](O)(Cc3ccccc3)C[C@@H]2C1)c1cnc(OCc2ccccc2)cn1 [Example 162, 2-((3aR,5r,6aS)-5-benzyl-5-hydroxyhexahydrocyclo-penta[c]pyrrol-2(1H)-yl)-1-(5-(benzyloxy)pyrazin-2-yl)ethanone] |
| > 10 | 10 | COc1cccc(NC(=O)N2C[C@@H]3C[C@@](O)(Cc4ccccc4)C[C@@H]3C2)c1 [Example 119, (3aR,5r,6aS)-5-benzyl-5-hydroxy-N-(3-methoxy-phenyl)hexahydro-cyclopenta[c]pyrrole-2(1H)-carboxamide] |
| 0.1 to 1 | 0.682 | O=C(CN1C[C@@H]2CN(Cc3ccccc3)C[C@@H]2C1)c1ccc(O)cc1 [Example 326, 2-(5-benzylhexahydropyrrolo [3,4-c]pyrrol-2(1H)-yl)-1-(4-hydroxy-phenyl)ethanone] |
| > 10 | 10 | COc1ccc(C)cc1NC(=O)N1C[C@H]2C[C@@H](c3ccccc3)C[C@H]2C1 [Example 109, N-(2-methoxy-5-methylphenyl)-5-phenyl-octahydrocyclopenta[c] pyrrole-2-carboxamide] |
| > 10 | 10 | CC(C)(O)c1ccc(C(=O)CN2C[C@@H]3C[C@@](O)(Cc4ccccc4)C[C@@H]3C2)cc1 [Example 138, 2-((3aR,5r,6aS)-5-benzyl-5-hydroxyhexahydrocyclo-penta[c]pyrrol-2(1H)-yl)-1-(4-(2-hydroxypropan-2-yl)phenyl)ethanone] |

| Compound | IC50 (NR1/NR2B [1]) [µM] | IC50 (NR1/NR2B [2]) [µM] |
| --- | --- | --- |
| O=C(Nc1cccc(C(F)(F)F)c1)N1C[C@@H]2C[C@@](O)(c3ccccc3)C[C@@H]2C1 [Example 5, 5-hydroxy-5-phenyl-N-[3-(trifluoromethyl)phenyl]-octahydrocyclopenta[c] pyrrole-2-carboxamide] | > 10 | 10 |
| Oc1ccc([C@@H](O)CN2C[C@@H]3C[C@](O)(Cc4ccccc4)C[C@@H]3C2)cc1 [Example 2291, (3aR,5R,6aS)-5-benzyl-2-((R)-2-hydroxy-2-(4-hydroxyphenyl)ethyl) octahydrocyclopenta [c]pyrrol-5-ol] | 0.1 to 1 | 0.332 |
